According to paper PMC7822874, “Chemoprotective antimalarials identified through quantitative high-throughput screening of Plasmodium blood and liver stage parasites” (Scientific Reports, 2021):
Read-outs that look alike come from different tables or passages of the source.

What was measured:
in vitro [1] = settings: human, n = 1
[2] = tested on: Plasmodium falciparum Dd2 asexual blood stage parasites; assay: microbe, parasite or virus in culture; parameters: species or system Plasmodium falciparum Dd2 in human erythrocytes; single determination (one 11-point concentration-response curve); settings: Plasmodium falciparum, DD2, Erythrocyte, 72 h; read-out: AC50
in vitro [3] = settings: human
[4] = tested on: P. berghei-ANKA-GFP-LucCON liver stage parasites in HepG2-A16-CD81EGFP cells; assay: P. berghei liver stage Pb-Luc assay, Method 1 (UCSD, 1536-well); format: cell-based, Plasmodium berghei; settings: for activity at 1 µM / activity at 3 µM: 48 h, average of 2 wells on a 1536 well plate; for Max Resp (signal direction of the dose response) / AC50 / Log AC50 (M): Method 1; for Max Resp (signal direction of the dose response): Decrease = decreasing P. berghei viability with dose, Increase = increasing signal, Inactive = no dose response
HepG2-A16-CD81EGFP cells = settings: average of 2 wells
[5] = HepG2-A16-CD81EGFP cells, uninfected
[6] = Plasmodium berghei, 1 uM (compounds provided at 10 mM), column 11, read-out: Pb-Luc (P. berghei liver stage), % of control, lower concentration, first repeat
[7] = Plasmodium berghei, 1 uM (compounds provided at 10 mM), column 12, read-out: Pb-Luc (P. berghei liver stage), % of control, lower concentration, second repeat
[8] = Plasmodium berghei, 3 uM (compounds provided at 10 mM), column 8, read-out: Pb-Luc (P. berghei liver stage), % of control, higher concentration, first repeat
[9] = Plasmodium berghei, 3 uM (compounds provided at 10 mM), column 9, read-out: Pb-Luc (P. berghei liver stage), % of control, higher concentration, second repeat
[10] = Hill fit, 50% of maximum activity response, read-out: AC50
[11] = log10 of molar AC50 from Hill fit
[12] = Plasmodium berghei, Hill fit, 50% of maximum activity response, read-out: AC50
[13] = Plasmodium berghei, log10 of molar AC50 from Hill fit, read-out: Log AC50 (converted)

CCCN(CCC)c1nc(-c2ccccn2)nc2ccccc12 [MLS001165172-01]
CC50 at 48 h (in vitro [1]; HepG2 cells): 9680 nM | AC50 [2]: 5310 nM | viability at 48 h, 1 µM (in vitro [3]; [5]): 112% | viability at 48 h, 3 µM (in vitro [3]; [5]): 90% | activity at 1 µM [4, 6]: 92% | activity at 1 µM [4, 7]: 102% | activity at 3 µM [4, 8]: 8% | activity at 3 µM [4, 9]: 7%

O=C1c2cc(F)ccc2-n2c1nc1ccccc1c2=O [MLS001216278-01]
CC50 at 48 h (in vitro [1]; HepG2 cells): 12200 nM | AC50 [2]: 119 nM | viability at 66 h (in vitro [3]; [5]): 95.7% | Max Resp (signal direction of the dose response) [4]: Decrease | AC50 [4, 10]: 4 nM | Log AC50 (M) [4, 11]: -8.400 M | AC50 [4, 12]: 3.55 nM | AC50 [4, 13]: 3.55 nM

O=C(CCl)Nc1cccc(-c2cnc3ccccc3n2)c1 [MLS000541295-01]
CC50 at 48 h (in vitro [1]; HepG2 cells): 13700 nM | AC50 [2]: 6680 nM | HepG2 1uM growth rep1 (HepG2-A16-CD81EGFP cells; HepG2, 1 µM compound treatment (10 mM stocks), replicate 1, normalized): 90% | HepG2 1uM growth rep2 (HepG2-A16-CD81EGFP cells; HepG2, 1 µM compound treatment (10 mM stocks), replicate 2, normalized): 88% | HepG2 3uM growth rep1 (HepG2-A16-CD81EGFP cells; HepG2, 3 µM compound treatment (10 mM stocks), replicate 1, normalized): 89% | HepG2 3uM growth rep2 (HepG2-A16-CD81EGFP cells; HepG2, 3 µM compound treatment (10 mM stocks), replicate 2, normalized): 88% | activity at 1 µM ([4]; Plasmodium berghei, P. berghei liver stage, 1 µM compound treatment (10 mM stocks), replicate 1, normalized, read-out: PbLuc 1uM growth rep1): 128% | activity at 1 µM ([4]; Plasmodium berghei, P. berghei liver stage, 1 µM compound treatment (10 mM stocks), replicate 2, normalized, read-out: PbLuc 1uM growth rep2): 119% | activity at 3 µM ([4]; Plasmodium berghei, P. berghei liver stage, 3 µM compound treatment (10 mM stocks), replicate 1, normalized, read-out: PbLuc 3uM growth rep1): 151% | activity at 3 µM ([4]; Plasmodium berghei, P. berghei liver stage, 3 µM compound treatment (10 mM stocks), replicate 2, normalized, read-out: PbLuc 3uM growth rep2): 185%

CC(=O)N(C)C1=C(N2CCOCC2)C(=O)c2ccccc2C1=O [MLS000570886-01]
CC50 at 48 h (in vitro [1]; HepG2 cells): 10900 nM | AC50 [2]: 841 nM | viability at 66 h (in vitro [3]; [5]): 92.5% | Max Resp (signal direction of the dose response) [4]: Decrease | AC50 [4, 10]: 1580 nM | Log AC50 (M) [4, 11]: -5.800 M | AC50 [4, 12]: 1260 nM | AC50 [4, 13]: 1260 nM

O=C1c2ccccc2C(=O)c2[nH]c(=O)[nH]c21 [MLS001173438-01]
CC50 at 48 h (in vitro [1]; HepG2 cells): 10900 nM | AC50 [2]: 5960 nM | viability at 66 h (in vitro [3]; [5]): 95.7% | Max Resp (signal direction of the dose response) [4]: Decrease | AC50 [4, 12]: 1580 nM | AC50 [4, 13]: 1580 nM

O=C1Nc2ccccc2C1=NN=C(S)N1CCOCC1 [MLS000778251-01]
CC50 at 48 h (in vitro [1]; HepG2 cells): 15300 nM | AC50 [2]: 2110 nM | viability at 66 h (in vitro [3]; [5]): 86.1% | Max Resp (signal direction of the dose response) [4]: Decrease | AC50 [4, 10]: 316 nM | Log AC50 (M) [4, 11]: -6.500 M | AC50 [4, 12]: 251 nM | AC50 [4, 13]: 251 nM

Cc1ccc(Cl)cc1NC(=O)c1cc2ccccc2cc1O [MLS000738149-01]
CC50 at 48 h (in vitro [1]; hepg2): 21700 nM | AC50 [2]: 1500 nM | viability at 48 h, 1 µM (in vitro [3]): 104% | viability at 48 h, 3 µM (in vitro [3]): 69% | activity at 1 µM [4, 6]: 92% | activity at 1 µM [4, 7]: 94% | activity at 3 µM [4, 8]: 38% | activity at 3 µM [4, 9]: 81%

N=c1ccn(Cc2ccc(Cl)cc2Cl)cc1 [MLS000554049-01]
CC50 at 48 h (in vitro [1]; HepG2 cells): 19300 nM | AC50 [2]: 8410 nM | viability at 48 h (in vitro [3]; [5]): 89.2% | viability at 48 h, 1 µM (in vitro [3]; [5]): 89.2% | Max Resp (signal direction of the dose response) [4]: Inactive

O=C(Nc1nc(-c2ccccn2)cs1)c1cccc(S(=O)(=O)N2CCOCC2)c1 [MLS002161290-01]
CC50 at 48 h (in vitro [1]; HepG2 cells): 9680 nM | AC50 [2]: 5960 nM | viability at 48 h, 1 µM (in vitro [3]; [5]): 98% | viability at 48 h, 3 µM (in vitro [3]; [5]): 60% | activity at 1 µM [4, 6]: 17% | activity at 1 µM [4, 7]: 16% | activity at 3 µM [4, 8]: 7% | activity at 3 µM [4, 9]: 7%

c1ccc(CCNc2nc(-c3ccccn3)nc3ccccc23)cc1 [MLS000769840-01]
CC50 at 48 h (in vitro [1]; HepG2 cells): 10900 nM | AC50 [2]: 4730 nM | viability at 48 h (in vitro [3]; [5]): 96.1% | viability at 48 h, 1 µM (in vitro [3]; [5]): 96.1% | Max Resp (signal direction of the dose response) [4]: Inactive

c1ccc(CNc2nc(-c3ccccn3)nc3ccccc23)cc1 [MLS001165148-01]
CC50 at 48 h (in vitro [1]; HepG2 cells): 10900 nM | AC50 [2]: 5310 nM | viability at 48 h, 1 µM (in vitro [3]; [5]): 93% | viability at 48 h, 3 µM (in vitro [3]; [5]): 87%

CC(C)Nc1ccc(Nc2ccnc3cc4ccccc4cc23)cc1 [MLS000766754-01]
CC50 at 48 h (in vitro [1]; HepG2 cells): 27300 nM | viability at 48 h, 1 µM (in vitro [3]; [5]): 114% | viability at 48 h, 3 µM (in vitro [3]; [5]): 78% | activity at 1 µM [4, 6]: 101% | activity at 1 µM [4, 7]: 80% | activity at 3 µM [4, 8]: 10% | activity at 3 µM [4, 9]: 14%

c1ccc(CCNc2ccnc3cc4ccccc4cc23)cc1 [MLS000717866-01]
CC50 at 48 h (in vitro [1]; HepG2 cells): 10900 nM | AC50 [2]: 1680 nM | viability at 66 h (in vitro [3]; [5]): 93.8% | Max Resp (signal direction of the dose response) [4]: Decrease | AC50 [4, 10]: 501 nM | Log AC50 (M) [4, 11]: -6.300 M | AC50 [4, 12]: 398 nM | AC50 [4, 13]: 398 nM

COc1ccc(Nc2cc(O)c3ncccc3c2)cc1 [NCGC00183797-01]
CC50 at 48 h (in vitro [1]; HepG2 cells): 19300 nM | AC50 [2]: 750 nM | viability at 48 h, 1 µM (in vitro [3]; [5]): 89% | viability at 48 h, 3 µM (in vitro [3]; [5]): 73%

CCOC(=O)c1cnc(-n2nc(C)cc2C)nc1NC1CCCC1 [MLS000333072-01]
CC50 at 48 h (in vitro [1]; HepG2 cells): 17200 nM | AC50 [2]: 8410 nM | viability at 66 h (in vitro [3]; [5]): 107% | Max Resp (signal direction of the dose response) [4]: Inactive

O=C(Nc1ccc([N+](=O)[O-])cc1)Nc1nc(-c2ccc(Cl)s2)cs1 [MLS000722351-01]
CC50 at 48 h (in vitro [1]; HepG2 cells): 13700 nM | AC50 [2]: 2990 nM | viability at 66 h (in vitro [3]; [5]): 90% | Max Resp (signal direction of the dose response) [4]: Decrease | AC50 [4, 10]: 224 nM | Log AC50 (M) [4, 11]: -6.650 M | AC50 [4, 12]: 178 nM | AC50 [4, 13]: 178 nM

COc1ccccc1NS(=O)(=O)c1cc(NC(=O)c2ccc(Cl)nc2)ccc1Cl [MLS000417369-01]
CC50 at 48 h (in vitro [1]; HepG2 cells): 19300 nM | viability at 66 h (in vitro [3]; [5]): 96.5% | Max Resp (signal direction of the dose response) [4]: Decrease | AC50 [4, 10]: 2510 nM | Log AC50 (M) [4, 11]: -5.600 M | AC50 [4, 12]: 2000 nM | AC50 [4, 13]: 2000 nM

O=S(=O)(Nc1cc2nc3ccccc3nc2n1Cc1ccccc1)c1ccc(Cl)cc1 [MLS002583111-01]
CC50 at 48 h (in vitro [1]; HepG2 cells): 19300 nM | AC50 [2]: 1190 nM | viability at 66 h (in vitro [3]; [5]): 103%

COc1cnc(-c2ccccn2)nc1Sc1c(Cl)cccc1Cl [MLS000325774-01]
CC50 at 48 h (in vitro [1]; HepG2 cells): 24300 nM | AC50 [2]: 2990 nM | viability at 48 h, 1 µM (in vitro [3]; [5]): 106% | viability at 48 h, 3 µM (in vitro [3]; [5]): 99%

N=c1ccn(Cc2ccc(Cl)c(Cl)c2)cc1 [MLS000080112-01]
CC50 at 48 h (in vitro [1]; HepG2 cells): 30600 nM | AC50 [2]: 6680 nM | viability at 66 h (in vitro [3]; [5]): 99.6% | Max Resp (signal direction of the dose response) [4]: Decrease | AC50 [4, 10]: 1580 nM | Log AC50 (M) [4, 11]: -5.800 M | AC50 [4, 12]: 1410 nM | AC50 [4, 13]: 1410 nM
